System: CD4^+ T cells
Test: CD28, CTLA-4 and LFA-1 expression on T cells by flow cytometry
Type: cell-based
Procedure: CD28 and CTLA-4 expression was detected on the surface of the resting and ConA activated CD4^+ T cells by flow cytometric analysis. Briefly, the splenocytes (3×10^6 cells/well) were activated with OVA (200 μg/ml) or ConA (1 μg/ml and 2 μg/ml) and were incubated in the presence of different concentrations of Caerulomycin A (0.0125-0.45 μg/ml). The cultures were harvested after 24, 48, 72 and 96 h and cells were stained for the expression of CD4, CD28 and CTLA-4. Further, cultures were also set where Caerulomycin A was added after 24 h and 48 h of the initiation of cultures and the cells were stained after incubating further for 24 h. The cells were harvested and 3-color staining was done using PE (Phycoerythrin) conjugated anti-CD4 Ab, FITC (Fluorescein isothiocyanate) conjugated anti-CTLA-4, and Cy (Cy-chrome) conjugated CD28 Abs. The cells from each suspension were acquired on CELLQUEST software of FACScan (Becton Dickinson, Mountain View, Calif.). […] The analysis for the mean fluorescence intensity (MFI) was done on histograms where abcissa and ordinate denote log fluorescence and relative cell count, respectively.
Examples establishing the role of Caerulomycin A [isolated from a novel species of Actinoalloteichus] in inducing immunosuppression based on the following: • Splenocytes of BALB/c mice were stimulated with either ConA (1 μg/ml and 2 μg/ml) or LPS (5 μg/ml and 10 μg/ml) and were cultured with different concentrations of Caerulomycin A (0.0003-0.1 μg/ml). […] Radioactivity incorporated was measured by liquid scintillation counting. • Antigen ovalbumin (100 μg/ml) emulsified in Freund's complete adjuvant was injected in a group consisting of 5 BALB/c mice. […] Radioactivity incorporated was measured by liquid scintillation. The culture supernatants were collected after 48 h and cytokines were measured by ELISA. • Immunosuppressive effect of different doses of Caerulomycin A was monitored on naïve CD4^+ T cells, antigen reactive CD4^+ T cells, Th2 clone and Th1 hybridoma. […]

[1] = CD4+ T cells, Caerulomycin A 0.0125-0.45 μg/ml

COc1cc(/C=N/O)nc(-c2ccccn2)c1 [Caerulomycin A, (E)-4-methoxy-2,2′-bipyridine-6-carbaldehyde oxime]
expression or percentage of LFA-1 positive cells: did not exhibit any significant change
expression and percentage of CD28 [1]: decreased the expression and percentage
expression and percentage of CTLA-4 positive cells [1]: significantly enhanced the expression but also the percentage

Reference: US8114895B2, “Use of bipyridine compound ‘Caerulomycin A’ derivatives and analogs thereof as immunosuppressive agents” (Council of Science and Industrial Research, priority 2005, dated 2012)
